Test results from publication PMC5859250, “Contribution of transformation products towards the total herbicide toxicity to tropical marine organisms” (Scientific Reports, 2018).
≈ marks a conversion by molar mass, not a printed value.

Key:
[1] = Herbicide degradation in outdoor tanks with coastal seawater and sediment (330 d); type: physicochemical; settings: for Transformation product concentration: in tank of the parent herbicide, measured or estimated
Source text: Photosystem II herbicides/transformation product solutions were produced by adding herbicides to seawater within separate 120 l outdoor fibreglass tanks, in the presence of natural coastal sediments (further details can be found in Mercurio 2016)[36]. […] The tanks used were previously described in Mercurio et al.[8], with treatment water being partially shaded (70%) and exposed to a maximum of 700 µmol photons m^−2s^−1 over the course of the experiment. The application of a natural diurnal light regime and coastal sediment were previously shown to increase the rates of PSII herbicide degradation and represent more natural conditions than those used in standard degradation tests[8],[36]. Evaporation was minimised with loose-fitting clear acrylic lids and the water continuously circulated using Turbelle Nanostream pumps. Prior to every sampling period evaporation losses were replenished with equal volumes of MilliQ water. The average temperature was 25.7 °C with a range of 15.6–36.6 °C over the course of the study. Unfiltered coastal seawater and sediments were collected from the intertidal zone adjacent to the Australian Institute of Marine Science (19°16′S, 147°03′E), Cape Cleveland, QLD. The sediments were prepared one week prior to use by sieving (>2 mm removed) and thorough mixing. Each tank contained 5 kg of sediment. Physical and chemical information on the seawater and sediments used the treatments can be found in SOM Table 1.
The 20 tanks included replicates for control seawater (n = 4) and the PSII herbicides diuron (n = 4), atrazine (n = 3), simazine (n = 3), hexazinone (n = 3), and ametryn (n = 3). Herbicide treatments and replicates were randomized among tanks. The herbicides were purchased from Sigma Aldrich (>95% purity) and were introduced at ~1 mg l^−1 to enable direct chemical and toxicological testing of the herbicide transformation product mixtures without additional concentration steps. […] The same concentration was used in the controls. Sample collection, internal standard addition, and analytical techniques (HPLC-MS/MS using an AB/Sciex API5500Q mass spectrometer equipped with an electrospray interface and coupled to a Shimadzu Prominence HPLC system) were as previously reported[7],[36]. […] Individual replicates were analysed using HPLC/TripleTOF mass spectrometry for possible transformation products as described in Mercurio 2016[36]. Briefly, 0.2 µm-filtered samples were directly injected into an ABSciex API5600+ Triple TOF mass spectrometer (ABSciex, Concord, Ontario, Canada) equipped with an electrospray (TurboV) interface coupled to a Shimadzu Nexera HPLC system (Shimadzu Corp., Kyoto, Japan). Separation was achieved using a 4 micron 50 × 2.0 mm Phenomenex Synergi Fusion RP column (Phenomenex, Torrance, CA) run at 45 °C, and a flow rate of 0.4 mL min^−1 with a linear gradient starting at 8% B for 0.5 minutes, ramped to 100% B in 8 minutes then held at 100% for 2.0 minutes followed by equilibration at 8% B for 2.5 minutes (A = 1% methanol in HPLC grade water, B = 95% methanol in HPLC grade water, both containing 0.1% acetic acid). The mass spectrometer was operated in positive ion SWATH mode. Briefly this mode comprises a TOF scan of 50 millisecond duration followed by small segments of the mass range being transmitted through the quadrupole, fragmented in the collision cell and full TOF mass spectra taken of the transformation products. Data from these experiments was examined using the Masterview software (ABSciex).
Potential transformation products identified using TOF mass spectrometry and other potential transformation products identified from literature were then re-examined by HPLC/ triple quadrupole mass spectrometry using multiple reaction monitoring. Product ions used were as identified from QTOF data or from literature references and parameters such as collision energy optimised by repeated injections of samples for compounds detected. […]

[2] = test system: prawn (Penaeus monodon) larvae; experiment: Prawn larvae assay, metamorphosis of nauplii into protozoea (24 h static); type: in vivo; settings: 24 h; for Effect on prawn larval metamorphosis (in words): concentration range tested; for LOEC, prawn larval metamorphosis / NOEC, prawn larval metamorphosis: vs solvent control, ANOVA p < 0.05, aged solutions as concentration of parent herbicide
Description: The giant tiger prawn (Penaeus monodon) can be found throughout the tropical Indo-Pacific region and can be obtained from aquaculture facilities and has a well-described life cycle. The aim of the larval prawn assay was to determine whether the herbicides and transformation products inhibit early naupliar development. Prawn eggs hatch into their first larval stage (nauplii), typically 12–15 h after spawning. During development the nauplii are lecithotrophic, and over the course of the next 36 h, nauplii pass through 6 sub-stages before metamorphosing into protozoae[67],[68].
Freshly hatched nauplii were harvested by light attraction over 30 min, and washed and aerated for 10 min with seawater, and transported to AIMS in Townsville, Queensland. […] The toxicity assays were performed in incubator shakers (set to 30 °C) under very low light and with gentle shaking to prevent individuals adhering to the side of experimental containers.
The larval stock was gently concentrated via reverse-gravity filtration to a higher density before dispensing 8–10 individuals per 20 ml glass scintillation vials. Additional positive control treatments in the form of 4 concentrations of copper II chloride solution (2 to 900 µg l^−1 Cu), were included for test validation. The static assay was terminated after 24 h and 10% seawater formalin was added as a preservative for later microscopy. Metamorphosis was considered successful when nauplii had developed into protozoea.
(§1) The model was constrained by applying a lower limit of 0% inhibition and all curves were tested for normality of the residuals and a replicate test was applied to assess the goodness of fit[36]. The probability that ICX values generated by the logistic curves were statistically different between parent and aged herbicide solutions was tested by applying the F test in Graph Pad Prism v6. ICXs were considered different when p < 0.05. Where inhibition data could not be fitted to logistic curves, one-way analysis of variance (ANOVA) was performed to identify treatments which caused significant (p < 0.05) inhibition comparison with control treatments (NCSS v9, Utah, USA). The larval prawn experimental data was arcsine square root transformed prior to statistical analysis.

Dunaliella sp. = experiment: Microalgal PAM fluorometry assay, inhibition of ∆F/Fm′ (24 h, 96-well plate); type: cell-based; settings: 24 h; for IC20: read-out: IC20 parent (inhibition of ∆F/Fm′ by 20%); for IC50: read-out: IC50 parent (inhibition of ∆F/Fm′ by 50%); for IC10 parent (inhibition of ∆F/Fm′ by 10%): Dunaliella sp., pure compound
Source text: (§2) Microalgae play a critical role in the marine food web and have been used in a number of sensitive assays for the assessment of toxicity of both herbicides and their transformation products[13],[16],[60]. High throughput 96 well plate designs allow for increased replication and a wide range of concentrations especially when paired with pulse amplitude modulation (PAM) fluorometry[50],[61]. PAM fluorometry measures chlorophyll fluorescence and can be used to calculate inhibitions of effective quantum yield ∆F/Fm′, which is proportional to reduced photosynthetic efficiency[62] and growth in microalgae[63] and can be plotted against toxicant concentrations to derive concentrations that inhibit ∆F/Fm′ by 10, 20 and 50% (IC10, IC20 and IC50). In the present study the green algae (Dunaliella sp.) and coral symbiont (Symbiodinium sp.) were exposed to herbicides and aged herbicide solutions for 24 h in a 96-well plate format. A Maxi-Imaging-PAM (I-PAM) (Walz, GmbH Germany) was used to measure inhibition of ∆F/Fm′ using settings provided previously[36] and below.
(§3) Symbiodinium cells were isolated from coral by air blasting branches of Acropora tenuis colonies collected (collected under the permit G10-33440.1) at 2–5 m depth in Nelly Bay, Magnetic Island, GBR[36]. Symbiodinium cells were inoculated into sterile IMK growing media, the culture purified, DNA extracted, and Clade C1 identified as published previously[64],[65]. Cultures were maintained at 26 °C, 60 µE PAR, 14:10 light:dark photoperiod inside environmental chambers (Steridium e500). The Dunaliella sp. (CS-353) (Chlorophyceae) was obtained from the CSIRO Collection of Living Microalgae (CCLM). The algae was subcultured and grown in F2 media. For the toxicology assays, an exponentially growing culture was employed[63] and density adjusted by hemocytometry under 10× magnification. Day 7 sub-cultures were used throughout the experiment.
(§4) Herbicide solutions were delivered into each treatment plate using a Perkin Elmer Janus liquid handling system. Each well of the black 96-well plates (Perkin Elmer) received 100 µl herbicide solution as well as 100 µl of algal suspension (added via multi-channel pipette) and the solution was gently mixed. […] Each plate included a 3 µg l^−1 positive diuron control (n = 4) to confirm consistent sensitivities among the replicate algal subcultures. Treatments positions were randomised across the plates in duplicate[50],[61],[66]. Symbiodinium culture plates were incubated over a 12:12 h light:dark cycle at 26 °C and 60–70 µmol photons m^−2 s^−1 and Dunaliella sp. Plates incubated at: 26 °C and 130 µmol photons m^−2 s^−1. Microalgae were exposed for 24 h prior to PAM measurements. Samples were subjected to the 50 µmol photons m^−2 s^−1 actinic light for 1 min prior to measurement in the Maxi-IPAM (Actinic light = 1, ML = 10, ML frequency = 8, gain = 2 and damping = 1).
as §1

Symbiodinium sp. = experiment: as above; type: cell-based; settings: 24 h; for IC20: read-out: IC20 parent (inhibition of ∆F/Fm′ by 20%); for IC50: read-out: IC50 parent (inhibition of ∆F/Fm′ by 50%); for IC10 parent (inhibition of ∆F/Fm′ by 10%): Symbiodinium sp., pure compound
Source text: as §2, §3, §4, §1

[3] = day 330, seawater with sediment, outdoor tanks

CSc1nc(N)nc(NC(C)C)n1 [Ametryn desethyl, ametryn desethyl]
Transformation product concentration ([1]; day 330): 23 µg/L

CCNc1nc(N)nc(SC)n1 [Ametryn desisopropyl, ametryn desisopropyl]
Transformation product concentration ([1]; day 330): BDL

CCNc1nc(NC(C)C)[nH]c(=O)n1 [Ametryn hydroxy, hydroxy ametryn]
Transformation product concentration ([1]; day 330): 188 µg/L

CCNc1nc(NC(C)C)nc(SC)n1 [Ametryn]
Effect on prawn larval metamorphosis (in words) [2]: did not affect metamorphosis | LOEC, prawn larval metamorphosis [2]: >517 µg/L | NOEC, prawn larval metamorphosis [2]: 517 µg/L | IC20 (Dunaliella sp.): 0.00123 µg/mL (≈ 0.00541 µM) | IC50 (Dunaliella sp.): 0.0034 µg/mL (≈ 0.015 µM) | IC10 parent (inhibition of ∆F/Fm′ by 10%) (Dunaliella sp.): 0.70 (0.65–0.74) µg l^−1 | IC20 (Symbiodinium sp.): 0.00082 µg/mL (≈ 0.00361 µM) | IC50 (Symbiodinium sp.): 0.0022 µg/mL (≈ 0.00968 µM) | IC10 parent (inhibition of ∆F/Fm′ by 10%) (Symbiodinium sp.): 0.47 (0.43–0.51) µg l^−1 | % degradation ([1]; 330 d): 56% | Parent herbicide concentration [1, 3]: 189 µg/L

CCNc1nc(NC(C)C)[nH]c(=O)n1 [Atrazine hydroxy, hydroxy atrazine]
Transformation product concentration ([1]; day 330): 30 µg/L

CCNc1nc(Cl)nc(NC(C)C)n1 [Atrazine]
LOEC, prawn larval metamorphosis [2]: 899 µg/L | NOEC, prawn larval metamorphosis [2]: 197 µg/L | IC20 (Dunaliella sp.): 0.018 µg/mL (≈ 0.0835 µM) | IC50 (Dunaliella sp.): 0.035 µg/mL (≈ 0.162 µM) | IC10 parent (inhibition of ∆F/Fm′ by 10%) (Dunaliella sp.): 12 (11–14) µg l^−1 | IC20 (Symbiodinium sp.): 0.014 µg/mL (≈ 0.0649 µM) | IC50 (Symbiodinium sp.): 0.0345 µg/mL (≈ 0.16 µM) | IC10 parent (inhibition of ∆F/Fm′ by 10%) (Symbiodinium sp.): 8.6 (8.0–9.3) µg l^−1 | % degradation [1, 3]: 64% | Parent herbicide concentration [1, 3]: 278 µg/L

[Cl][Cu][Cl] [Copper reference, copper II chloride, reference compound]
LOEC, prawn larval metamorphosis [2]: 91 µg/L | NOEC, prawn larval metamorphosis [2]: 11 µg/L

CNC(=O)Nc1ccc(Cl)c(Cl)c1 [DCPMU, 3-(3,4-dichlorophenyl)-1-methylurea]
Transformation product concentration ([1]; day 330): 236 µg/L

NC(=O)Nc1ccc(Cl)c(Cl)c1 [DCPU, 3,4-dichlorophenylurea]
Transformation product concentration ([1]; day 330): 85 µg/L

CCNc1nc(N)nc(Cl)n1 [Desethyl simazine, desethyl simazine]
Transformation product concentration ([1]; day 330): 79 µg/L

CN(C)C(=O)Nc1ccc(Cl)c(Cl)c1 [Diuron]
Effect on prawn larval metamorphosis (in words) [2]: did not affect metamorphosis | LOEC, prawn larval metamorphosis [2]: >874 µg/L | NOEC, prawn larval metamorphosis [2]: 874 µg/L | LOEC, prawn larval metamorphosis ([2]; listed as diuron): > 874 µg/L | IC20 (Dunaliella sp.): 0.00174 µg/mL (≈ 0.00746 µM) | IC50 (Dunaliella sp.): 0.0044 µg/mL (≈ 0.0189 µM) | IC10 parent (inhibition of ∆F/Fm′ by 10%) (Dunaliella sp.): 1.02 (0.94–1.10) µg l^−1 | IC20 (Symbiodinium sp.): 0.00068 µg/mL (≈ 0.00292 µM) | IC50 (Symbiodinium sp.): 0.0014 µg/mL (≈ 0.00601 µM) | IC10 parent (inhibition of ∆F/Fm′ by 10%) (Symbiodinium sp.): 0.64 (0.57–0.71) µg l^−1 | % degradation [1, 3]: 93% | Parent herbicide concentration [1, 3]: 71 µg/L

CNc1nc(=O)n(C2CCCCC2)c(=O)n1C [Hexazinone desmethyl, hexazinone desmethyl]
Transformation product concentration ([1]; day 330): 91 µg/L

CN(C)c1nc(=O)n(C2CCCCC2)c(=O)n1C [Hexazinone]
LOEC, prawn larval metamorphosis [2]: 1026 µg/L | NOEC, prawn larval metamorphosis [2]: 242 µg/L | IC20 (Dunaliella sp.): 0.01 µg/mL (≈ 0.0396 µM) | IC50 (Dunaliella sp.): 0.038 µg/mL (≈ 0.151 µM) | IC20 (Symbiodinium sp.): 0.012 µg/mL (≈ 0.0476 µM) | IC50 (Symbiodinium sp.): 0.0457 µg/mL (≈ 0.181 µM) | IC10 parent (inhibition of ∆F/Fm′ by 10%) (Symbiodinium sp.): 5.3 (4.5–6.7) µg l^−1 | % degradation ([1]; 330 d): 58% | Parent herbicide concentration [1, 3]: 366 µg/L

CCNc1nc(O)nc(NCC)n1 [Simazine hydroxy, hydroxy simazine]
Transformation product concentration ([1]; day 330): 45 µg/L

CCNc1nc(Cl)nc(NCC)n1 [Simazine]
IC20 (Dunaliella sp.): 0.017 µg/mL (≈ 0.0843 µM) | IC50 (Dunaliella sp.): 0.087 µg/mL (≈ 0.431 µM) | IC20 (Symbiodinium sp.): 0.034 µg/mL (≈ 0.169 µM) | IC50 (Symbiodinium sp.): 0.084 µg/mL (≈ 0.417 µM) | IC10 parent (inhibition of ∆F/Fm′ by 10%) (Symbiodinium sp.): 21 (19–23) µg l^−1 | % degradation [1, 3]: 63% | Parent herbicide concentration [1, 3]: 384 µg/L

hexazinone hydroxy
Transformation product concentration ([1]; day 330): 5.4 µg/L

hexazinone oxy
Transformation product concentration ([1]; day 330): 26 µg/L

simazine amine
Transformation product concentration ([1]; day 330): 31 µg/L
